The record followed here is PMC5904222, “Synthesis and anticancer activity of multisubstituted purines and xanthines with one or two propynylthio and aminobutynylthio groups” (Medicinal Chemistry Research, 2018).

Data set [1] deals with SNB-19 (human glioblastoma). The data set is described as follows: WST-1 proliferation assay, SNB-19. Format: cell-based. As to conditions: SNB-19 cells, 72 h exposure; for IC50: Homo sapiens, SNB-19, 72 h, read-out: Antiproliferative activity IC50 SNB-19. As to the method:
(§1) Compounds were evaluated for their anticancer activity using three cultured cell lines: SNB-19 (human glioblastoma, DSMZ - German Collection of Microorganisms and Cell Cultures, Braunschweig, Germany), C-32 (human amelanotic melanoma, ATCC-American Type Culture Collection, Manassas, VA, USA), MDA-MB-231 (human adenocarcinoma mammary gland, ATCC, Manassas, VA, USA), and HFF-1 (human fibroblast cell line, ATCC, Manassas, VA, USA). The cultured cells were kept at 37 °C and 5% CO2. The cells were seeded (1 × 10^4 cells/well/100 μL DMEM supplemented with 10% FCS and streptomycin and penicillin) using 96-well plates (Corning). The cells were counted in a hemocytometer (Burker’s chamber) using a phase contrast Olympus IX50 microscope equipped with Sony SSC-DC58 AP camera and Olympus DP10 digital camera.
(§2) The antiproliferative effect of the compounds obtained from both the cancer and the normal cells was determined using the Cell Proliferation Reagent WST-1 assay (Roche Diagnostics, Mannheim, Germany). This colorimetric assay is based on the viable cell’s ability to cause the bright red-colored stable tetrazolium salt (2-(4-iodophenyl)-3-(4-nitrophenyl)-5-(2,4-disulfophenyl)-2H-tetrazolium, monosodium salt) to cleave to the dark red soluble formazan by cellular enzymes. An expansion in the number of viable cells results in an increase in the overall activity of mitochondrial dehydrogenases in the sample. An increase in the amount of formazan dye formed correlates to the number of metabolically active cells in the culture. The formazan dye produced by metabolically active cells is quantified by a scanning ELISA reader that measures the absorbance of the dye solution at appropriate wavelengths. The examined cells were exposed to the tested compounds for 72 h at various concentrations between 0.1 and 100 μg/mL (prepared initially at a concentration of 1 mg/mL in DMSO). The control was performed in order to check that DMSO has no effect on the cells at the concentration used. The cells were incubated with WST-1 (10 μL) for 1 h and the absorbance of the samples was measured against a background control at 450 nm using a microplate reader with a reference wavelength at 600 nm. The results are expressed as the means of at least two independent experiments performed in triplicate. […] The IC50 values (a concentration of a compound that is required for 50% inhibition) were calculated from the dose–response relationship with respect to control.
A general note: Tetrazolium dyes change colour on reduction, which living cells bring about.

In data set [2] the test system is MDA-MB-231 (human adenocarcinoma mammary gland). Briefly: WST-1 proliferation assay, MDA-MB-231. Format: cell-based. As to conditions: Homo sapiens, MDA-MB-231, 72 h, MDA-MB-231 cells, 72 h exposure, read-out: Antiproliferative activity IC50 MDA-MB-231. As to the method: as §1, §2
For data set [3], the system named is HFF-1 (human fibroblast cell line). Briefly: WST-1 proliferation assay, normal fibroblasts HFF-1. It counts as cell-based. Conditions: for IC50: normal human fibroblasts HFF-1, 72 h exposure, WST-1, read-out: Antiproliferative activity IC50 HFF-1. As to the method: as §1
as §2, with “The control was performed in order to check that DMSO has no effect on the cells at the concentration used.” left out

The subject of data set [4] is C-32 (human amelanotic melanoma). The data set is described as follows: WST-1 proliferation assay, C-32. Conditions: C-32 cells, 72 h exposure; for IC50: Homo sapiens, C32, 72 h, read-out: Antiproliferative activity IC50 C-32. It counts as cell-based. As to the method:
as §1, §2

≈ marks a conversion by molar mass, not a printed value.

`Cn1c(SCC#CCN2CCCCC2)nc2nc(Cl)nc(SCC#CCN3CCCCC3)c21` [Compound 15b, 2-Chloro-6,8-di(4-N-piperidinylbut-2-ynylthio)-7-methylpurine] registered a melting point of 108 to 110 °C. In data set [1], the IC50 stood at 11.6 µg/mL (≈ 23.1 µM). Also, the IC50 in data set [2] was determined as 38.1 µg/mL (≈ 75.7 µM). For the same molecule, in data set [3], the IC50 was determined as 5.5 µg/mL (≈ 10.9 µM). Moreover, the half-maximal inhibitory concentration (IC50) in data set [4] is 19.1 µg/mL (≈ 37.9 µM).

Molecule `CCN(CC)CC#CCSc1nc(Cl)nc2nc(SCC#CCN(CC)CC)n(C)c12` [Compound 15d, 2-Chloro-6,8-di(diethylaminobut-2-ynylthio)-7-methylpurine] displayed a melting point of 88 to 90 °C. For the same molecule, in data set [1], the IC50 was 2.9 to 5.3 µg/mL (≈ 6.05 to 11.1 µM) and the “Antiproliferative activity IC50 SNB-19” value stood at 2.91 µg/mL. Besides, the 50% inhibitory concentration (IC50) in data set [2] came out at 10 µg/mL (≈ 20.9 µM). Besides, the “cytotoxicity on the normal human fibroblasts (HFF-1), in words” value in data set [3] (normal human fibroblasts HFF-1) is given as “cytotoxic”. Besides, the half-maximal inhibitory concentration (IC50) in data set [3] came to 1 µg/mL (≈ 2.09 µM). For the same molecule, in data set [4], the “Antiproliferative activity IC50 C-32” value turned out to be 5.33 µg/mL and the 50% inhibitory concentration (IC50) is 2.9 to 5.3 µg/mL (≈ 6.05 to 11.1 µM).

By melting point is commonly meant the temperature, or range, at which the solid turns liquid. For orientation: IC50 means the concentration that gives 50% inhibition.
